Source: the supplement of paper PMC13207355

Tests used:
Conditions in all cases: exposure time: 72 h
[1] = test system: E34 (patient-derived glioblastoma stem cells of proneural subtype); assay: surviving fraction (nuclei count normalised to DMSO); higher = more cells surviving (less toxic)
[2] = test system: E57 (patient-derived glioblastoma stem cells of mesenchymal subtype); assay: as above
[3] = test system: E31 (patient-derived glioblastoma stem cells of proneural subtype); assay: as above
[4] = test system: E28 (patient-derived glioblastoma stem cells of classical subtype); assay: as above
[5] = test system: E21 (patient-derived glioblastoma stem cells of mesenchymal subtype); assay: as above
[6] = test system: FT3469 (normal neural stem cell line); assay: as above
[7] = test system: E13 (patient-derived glioblastoma stem cells of classical subtype); assay: as above
[8] = test system: E34; assay: phenotypic distance (Euclidean, principal components) from DMSO controls (arbitrary units); higher = stronger morphological change
[9] = test system: E57; assay: as above
[10] = test system: E31; assay: as above
[11] = test system: E28; assay: as above
[12] = test system: E21; assay: as above
[13] = test system: FT3469; assay: as above
[14] = test system: E13; assay: as above
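Wherever phenotypic distance (Euclidean, principal components) from DMSO controls is given: cell Painting imaging in 384-well plates, CellProfiler features reduced to at least 20 principal components, Euclidean distance versus same-plate DMSO vehicle wells (0.1% v/v), median over six images per well.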
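Wherever surviving fraction (nuclei count normalised to DMSO) is given: nuclei counted by high-content imaging of Hoechst-stained cells in laminin-coated 384-well plates, relative to 0.1% DMSO vehicle wells, with staurosporine as cell-death control.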

CO[C@H]1C(=O)[C@]2(C)[C@@H](OC)C[C@H]3OC[C@@]3(OC(C)=O)[C@H]2[C@H](OC(=O)c2ccccc2)[C@]2(O)C[C@H](OC(=O)[C@H](O)[C@@H](NC(=O)OC(C)(C)C)c3ccccc3)C(C)=C1C2(C)C [Cabazitaxel]
Conditions | phenotypic distance | surviving fraction
[1], 4.1 nM | – | 0.399
[1], 12.3 nM | – | 0.365
[1], 37 nM | – | 0.434
[1], 111.1 nM | – | 0.49
[1], 333.3 nM | – | 0.476
[1], 1000 nM | – | 0.608
[1], 3000 nM | – | 0.531
[2], 4.1 nM | – | 0.0988
[2], 12.3 nM | – | 0.102
[2], 37 nM | – | 0.0906
[2], 111.1 nM | – | 0.117
[2], 333.3 nM | – | 0.125
[2], 1000 nM | – | 0.133
[2], 3000 nM | – | 0.141
[3], 4.1 nM | – | 0.252
[3], 12.3 nM | – | 0.164
[3], 37 nM | – | 0.195
[3], 111.1 nM | – | 0.192
[3], 333.3 nM | – | 0.262
[3], 1000 nM | – | 0.218
[3], 3000 nM | – | 0.288
[4], 4.1 nM | – | 0.367
[4], 12.3 nM | – | 0.401
[4], 37 nM | – | 0.344
[4], 111.1 nM | – | 0.301
[4], 333.3 nM | – | 0.412
[4], 1000 nM | – | 0.412
[4], 3000 nM | – | 0.534
[5], 4.1 nM | – | 0.323
[5], 12.3 nM | – | 0.353
[5], 37 nM | – | 0.326
[5], 111.1 nM | – | 0.325
[5], 333.3 nM | – | 0.365
[5], 1000 nM | – | 0.413
[5], 3000 nM | – | 0.423
[6], 4.1 nM | – | 0.374
[6], 12.3 nM | – | 0.573
[6], 37 nM | – | 0.435
[6], 111.1 nM | – | 0.553
[6], 333.3 nM | – | 0.535
[6], 1000 nM | – | 0.406
[6], 3000 nM | – | 0.63
[7], 4.1 nM | – | 0.197
[7], 12.3 nM | – | 0.226
[7], 37 nM | – | 0.203
[7], 111.1 nM | – | 0.265
[7], 333.3 nM | – | 0.25
[7], 1000 nM | – | 0.245
[7], 3000 nM | – | 0.32
[8], 4.1 nM | 4.76 | –
[8], 12.3 nM | 5.24 | –
[8], 37 nM | 5.3 | –
[8], 111.1 nM | 4.8 | –
[8], 333.3 nM | 5.59 | –
[8], 1000 nM | 4.91 | –
[8], 3000 nM | 4.55 | –
[9], 4.1 nM | 6.8 | –
[9], 12.3 nM | 7.09 | –
[9], 37 nM | 5.83 | –
[9], 111.1 nM | 6.72 | –
[9], 333.3 nM | 6.55 | –
[9], 1000 nM | 6.56 | –
[9], 3000 nM | 6.86 | –
[10], 4.1 nM | 4.63 | –
[10], 12.3 nM | 5.67 | –
[10], 37 nM | 4.24 | –
[10], 111.1 nM | 4.7 | –
[10], 333.3 nM | 4.56 | –
[10], 1000 nM | 4.89 | –
[10], 3000 nM | 3.99 | –
[11], 4.1 nM | 4.55 | –
[11], 12.3 nM | 4.4 | –
[11], 37 nM | 3.8 | –
[11], 111.1 nM | 4.96 | –
[11], 333.3 nM | 3.6 | –
[11], 1000 nM | 4.06 | –
[11], 3000 nM | 3.99 | –
[12], 4.1 nM | 7.35 | –
[12], 12.3 nM | 7.15 | –
[12], 37 nM | 6.53 | –
[12], 111.1 nM | 7.01 | –
[12], 333.3 nM | 7.6 | –
[12], 1000 nM | 8.51 | –
[12], 3000 nM | 7.5 | –
[13], 4.1 nM | 4.34 | –
[13], 12.3 nM | 4.07 | –
[13], 37 nM | 3.92 | –
[13], 111.1 nM | 4.49 | –
[13], 333.3 nM | 4.39 | –
[13], 1000 nM | 5.31 | –
[13], 3000 nM | 3.95 | –
[14], 4.1 nM | 7.08 | –
[14], 12.3 nM | 7.55 | –
[14], 37 nM | 7.44 | –
[14], 111.1 nM | 6.21 | –
[14], 333.3 nM | 6.97 | –
[14], 1000 nM | 7.09 | –
[14], 3000 nM | 6.39 | –

CNc1ccc2oc(C[C@H]3O[C@@]4(CC[C@H]3C)O[C@H]([C@H](C)C(=O)c3ccc[nH]3)[C@H](C)C[C@H]4C)nc2c1C(=O)O [Calcimycin]
Conditions | phenotypic distance | surviving fraction
[1], 4.1 nM | – | 0.804
[1], 12.3 nM | – | 0.991
[1], 37 nM | – | 0.946
[1], 111.1 nM | – | 0.787
[1], 333.3 nM | – | 0.467
[1], 1000 nM | – | 0.381
[1], 3000 nM | – | 0.143
[2], 4.1 nM | – | 1.07
[2], 12.3 nM | – | 0.989
[2], 37 nM | – | 0.871
[2], 111.1 nM | – | 0.561
[2], 333.3 nM | – | 0.201
[2], 1000 nM | – | 0.0743
[2], 3000 nM | – | 0.0336
[3], 4.1 nM | – | 0.918
[3], 12.3 nM | – | 0.898
[3], 37 nM | – | 1
[3], 111.1 nM | – | 0.786
[3], 333.3 nM | – | 0.259
[3], 1000 nM | – | 0.00976
[3], 3000 nM | – | 0.00976
[4], 4.1 nM | – | 1.07
[4], 12.3 nM | – | 1.19
[4], 37 nM | – | 0.999
[4], 111.1 nM | – | 0.82
[4], 333.3 nM | – | 0.391
[4], 1000 nM | – | 0.0896
[4], 3000 nM | – | 0.0448
[5], 4.1 nM | – | 0.98
[5], 12.3 nM | – | 0.993
[5], 37 nM | – | 0.951
[5], 111.1 nM | – | 0.887
[5], 333.3 nM | – | 0.438
[5], 1000 nM | – | 0.0684
[5], 3000 nM | – | 0.00892
[6], 4.1 nM | – | 1.05
[6], 12.3 nM | – | 0.987
[6], 37 nM | – | 0.999
[6], 111.1 nM | – | 0.849
[6], 333.3 nM | – | 0.578
[6], 1000 nM | – | 0.25
[6], 3000 nM | – | 0.118
[7], 4.1 nM | – | 0.894
[7], 12.3 nM | – | 0.814
[7], 37 nM | – | 0.678
[7], 111.1 nM | – | 0.576
[7], 333.3 nM | – | 0.266
[7], 1000 nM | – | 0.11
[7], 3000 nM | – | 0.061
[8], 4.1 nM | 1.43 | –
[8], 12.3 nM | 1.06 | –
[8], 37 nM | 1.29 | –
[8], 111.1 nM | 1.9 | –
[8], 333.3 nM | 5.09 | –
[8], 1000 nM | 6.74 | –
[8], 3000 nM | 8.56 | –
[9], 4.1 nM | 1.32 | –
[9], 12.3 nM | 0.365 | –
[9], 37 nM | 1.3 | –
[9], 111.1 nM | 3.84 | –
[9], 333.3 nM | 7.84 | –
[9], 1000 nM | 9.39 | –
[9], 3000 nM | 9.11 | –
[10], 4.1 nM | 0.62 | –
[10], 12.3 nM | 0.642 | –
[10], 37 nM | 0.72 | –
[10], 111.1 nM | 2.33 | –
[10], 333.3 nM | 7.91 | –
[10], 1000 nM | 11 | –
[10], 3000 nM | 10.4 | –
[11], 4.1 nM | 0.698 | –
[11], 12.3 nM | 0.777 | –
[11], 37 nM | 0.856 | –
[11], 111.1 nM | 1.27 | –
[11], 333.3 nM | 2.95 | –
[11], 1000 nM | 5.6 | –
[11], 3000 nM | 6.55 | –
[12], 4.1 nM | 0.571 | –
[12], 12.3 nM | 0.699 | –
[12], 37 nM | 0.538 | –
[12], 111.1 nM | 1.96 | –
[12], 333.3 nM | 7.08 | –
[12], 1000 nM | 8.73 | –
[12], 3000 nM | 12.7 | –
[13], 4.1 nM | 1.09 | –
[13], 12.3 nM | 0.726 | –
[13], 37 nM | 1.32 | –
[13], 111.1 nM | 1.82 | –
[13], 333.3 nM | 3.73 | –
[13], 1000 nM | 6.31 | –
[13], 3000 nM | 5.79 | –
[14], 4.1 nM | 1 | –
[14], 12.3 nM | 0.71 | –
[14], 37 nM | 1.46 | –
[14], 111.1 nM | 3.31 | –
[14], 333.3 nM | 6.79 | –
[14], 1000 nM | 7.97 | –
[14], 3000 nM | 8.33 | –
